Several values for one entry are separate records, joined by “and”; a condition that tells them apart may be missing. Equal values may be shown once.
How the values were obtained:
ABUTH [1] = experiment: Pre-emergence herbicidal action against ABUTH; assay type: in vivo, Abutilon theophrasti
Procedure, shortened: (§1)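 Herbicidal effect was assessed 3 weeks after treatment by visual comparison with untreated controls, 100% denoting dead plants. Aqueous WP or EC preparations had been applied at 600 to 800 l/ha with 0.2% wetting agent to the soil covering freshly sown seeds.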

ALOMY [2] = experiment: Pre-emergence herbicidal action against ALOMY; assay type: in vivo, Alopecurus myosuroides; conditions: 80 g/ha, pre-emergence, scored visually after 3 weeks vs untreated controls (100% = plants have died, 0% = like control plants)
Procedure, shortened: as §1

AMARE [3] = experiment: Pre-emergence herbicidal action against AMARE; assay type: in vivo, Amaranthus retroflexus
Procedure, shortened: as §1

AVEFA [4] = experiment: Pre-emergence herbicidal action against AVEFA; assay type: in vivo, Avena fatua; conditions: 80 g/ha, pre-emergence
Procedure, shortened: as §1

ECHCG [5] = experiment: Pre-emergence herbicidal action against ECHCG; assay type: in vivo, Echinochloa crus-galli; conditions: 80 g/ha
Procedure, shortened: as §1

LOLRI = experiment: Pre-emergence herbicidal action against LOLRI; assay type: in vivo, Lolium rigidum; conditions: 80 g/ha
Procedure, shortened: as §1

MATIN [6] = experiment: Pre-emergence herbicidal action against MATIN; assay type: in vivo, Matricaria inodora
Procedure, shortened: as §1

PHBPU [7] = experiment: Pre-emergence herbicidal action against PHBPU; assay type: in vivo, Pharbitis purpurea; conditions: dosage 80 g/ha
Procedure, shortened: as §1

POLCO = experiment: Pre-emergence herbicidal action against POLCO; assay type: in vivo, Polygonum convolvulus; conditions: dosage 80 g/ha
Procedure, shortened: as §1

SETVI [8] = experiment: Pre-emergence herbicidal action against SETVI; assay type: in vivo, Setaria viridis; conditions: dosage 80 g/ha
Procedure, shortened: as §1

VERPE [9] = experiment: Pre-emergence herbicidal action against VERPE; assay type: in vivo, Veronica persica; conditions: dosage 80 g/ha
Procedure, shortened: as §1

VIOTR [10] = experiment: Pre-emergence herbicidal action against VIOTR; assay type: in vivo, Viola tricolor
Procedure, shortened: as §1

DIGSA [11] = experiment: Pre-emergence herbicidal action against DIGSA; assay type: in vivo, Digitaria sanguinalis
Procedure, shortened: as §1

ABUTH [12] = experiment: Post-emergence herbicidal action against ABUTH; assay type: in vivo, Abutilon theophrasti; conditions: visual assessment about 3 weeks after treatment vs untreated controls
Procedure, shortened: (§2)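 Herbicidal effect was scored visually in percent after about 3 weeks in the greenhouse. Plants had been raised in sandy loam and treated post-emergence at the one-leaf stage with formulated compound at 600 to 800 l/ha water plus 0.2% wetting agent.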

ALOMY [13] = experiment: Post-emergence herbicidal action against ALOMY; assay type: in vivo, Alopecurus myosuroides; conditions: visual assessment about 3 weeks after treatment vs untreated controls
Procedure, shortened: as §2

AMARE [14] = experiment: Post-emergence herbicidal action against AMARE; assay type: in vivo, Amaranthus retroflexus; conditions: 20 g/ha, visual assessment about 3 weeks after treatment, 100% = plants have died, 0% = like control plants
Procedure, shortened: as §2

AVEFA [15] = experiment: Post-emergence herbicidal action against AVEFA; assay type: in vivo, Avena fatua; conditions: 20 g/ha, visual assessment about 3 weeks after treatment, 100% = plants have died, 0% = like control plants
Procedure, shortened: as §2

ECHCG [16] = experiment: Post-emergence herbicidal action against ECHCG; assay type: in vivo, Echinochloa crus-galli
Procedure, shortened: as §2

MATIN [17] = experiment: Post-emergence herbicidal action against MATIN; assay type: in vivo, Matricaria inodora; conditions: dosage 20 g/ha
Procedure, shortened: as §2

PHBPU [18] = experiment: Post-emergence herbicidal action against PHBPU; assay type: in vivo, Pharbitis purpurea
Procedure, shortened: as §2

SETVI [19] = experiment: Post-emergence herbicidal action against SETVI; assay type: in vivo, Setaria viridis; conditions: dosage 20 g/ha
Procedure, shortened: as §2

VERPE [20] = experiment: Post-emergence herbicidal action against VERPE; assay type: in vivo, Veronica persica; conditions: 20 g/ha
Procedure, shortened: as §2

VIOTR [21] = experiment: Post-emergence herbicidal action against VIOTR; assay type: in vivo, Viola tricolor
Procedure, shortened: as §2

DIGSA [22] = experiment: Post-emergence herbicidal action against DIGSA; assay type: in vivo, Digitaria sanguinalis
Procedure, shortened: as §2

[23] = 80 g/ha, scored visually after 3 weeks vs untreated controls (100% = plants have died, 0% = like control plants)

CCn1nnnc1NC(=O)c1ccc(C(F)F)c(C(=O)NCC2CC2)c1C [Example 2-47]
100%: Pre-emergence action against ABUTH (herbicidal activity) (ABUTH [1]; [23]) | Pre-emergence action against ABUTH (herbicidal activity in percent) (ABUTH [1]; dosage 20 g/ha, scored visually after 3 weeks vs untreated controls, 100% = plants have died, 0% = like control plants) | Pre-emergence action against ALOMY (herbicidal activity) (ALOMY [2]) | Pre-emergence action against AMARE in % (AMARE [3]; 20 g/ha, scored visually after 3 weeks vs untreated controls, 100% = plants have died, 0% = like control plants) | Pre-emergence action against AMARE in % (AMARE [3]; [23]) | Pre-emergence action against ECHCG in % (ECHCG [5]) | Pre-emergence action against MATIN in % (MATIN [6]; dosage 20 g/ha) | Pre-emergence action against MATIN in % (MATIN [6]; dosage 80 g/ha) | Pre-emergence action against SETVI in % (SETVI [8]) | Pre-emergence action against VERPE in % (VERPE [9]) | Pre-emergence action against VIOTR in % (VIOTR [10]; dosage 80 g/ha) | Pre-emergence action against DIGSA in % (DIGSA [11]; dosage 20 g/ha) | Pre-emergence action against DIGSA in % (DIGSA [11]; dosage 80 g/ha)
90%: Pre-emergence action against PHBPU in % (PHBPU [7]) | Post-emergence action against ABUTH in % (ABUTH [12]; dosage 20 g/ha) | Post-emergence action against ALOMY in % (ALOMY [13]; dosage 20 g/ha) | Post-emergence action against PHBPU in % (PHBPU [18]; dosage 20 g/ha) | Post-emergence action against SETVI in % (SETVI [19]) | Post-emergence action against DIGSA in % (DIGSA [22]; 5 g/ha) | Post-emergence action against DIGSA (DIGSA [22]; 20 g/ha)
90% and 100%: Post-emergence action at 20 g/ha against AMARE in % (AMARE [14])
90% and 80%: Post-emergence action against ABUTH in % (ABUTH [12]; dosage 5 g/ha) | Post-emergence action against ECHCG in % (ECHCG [16]; dosage 20 g/ha) | Post-emergence action against VIOTR in % (VIOTR [21]; 20 g/ha)
80%: Pre-emergence action against AVEFA in % (AVEFA [4]) | Pre-emergence action against LOLRI in % (LOLRI) | Pre-emergence action against POLCO in % (POLCO) | Pre-emergence action against VIOTR in % (VIOTR [10]; dosage 20 g/ha) | Post-emergence action against ALOMY in % (ALOMY [13]; dosage 5 g/ha) | Post-emergence action at 20 g/ha against AVEFA in % (AVEFA [15]) | Post-emergence action against ECHCG in % (ECHCG [16]; dosage 5 g/ha) | Post-emergence action against MATIN in % (MATIN [17]) | Post-emergence action against PHBPU in % (PHBPU [18]; dosage 5 g/ha) | Post-emergence action against VERPE in % (VERPE [20]) | Post-emergence action against VIOTR in % (VIOTR [21]; 5 g/ha)
